Reference: ChEMBL document CHEMBL3046062, “Anti-HIV, antimycobacterial and antimicrobial studies of newly synthesized 1,2,4-triazole clubbed benzothiazoles” (Med Chem Res, 2013)
Values after ≈ are worked out from the molar mass of the structure shown.

What was measured:
[1] = tested on: Pseudomonas aeruginosa; experiment: Antibacterial activity against Pseudomonas aeruginosa MTCC 2488 after overnight incubation by broth microdilution method; format: functional
[2] = Selectivity index, ratio of CC50 for human MT4 cells to IC50 for HIV2 ROD; format: functional
[3] = Selectivity index, ratio of CC50 for human MT4 cells to IC50 for HIV1 3B; format: functional
[4] = Cytotoxicity against Homo sapiens (human) MT4 cells after 5 days by MTT assay; format: cell-based
[5] = tested on: Human immunodeficiency virus 2; experiment: Antiviral activity against Human immunodeficiency virus type 2 (ISOLATE ROD) infected MT4 cells assessed as inhibition of virus-induced cytopathogenicity after 5 days by MTT assay; format: functional, organism-based; details: Human immunodeficiency virus 2, ISOLATE ROD, MT4, 120 h
[6] = tested on: Human immunodeficiency virus 1; experiment: Antiviral activity against Human immunodeficiency virus 1 IIIB infected MT4 cells assessed as inhibition of virus-induced cytopathogenicity after 5 days by MTT assay; format: functional, organism-based; details: MT4, 120 h
[7] = tested on: Mycobacterium tuberculosis; experiment: Growth inhibition of Mycobacterium tuberculosis H37Rv at MIC after 28 days by Lowenstein-Jensen agar method; format: functional
[8] = tested on: Mycobacterium tuberculosis; experiment: Antitubercular activity against Mycobacterium tuberculosis H37Rv after 28 days by Lowenstein-Jensen agar method; format: functional; details: 672 h
[9] = tested on: Aspergillus clavatus; experiment: Antifungal activity against Aspergillus clavatus MTCC 323 after overnight incubation by broth microdilution method; format: functional
[10] = tested on: Aspergillus niger; experiment: Antifungal activity against Aspergillus niger MTCC 282 after overnight incubation by broth microdilution method; format: functional
[11] = tested on: Candida albicans; experiment: Antifungal activity against Candida albicans MTCC 227 after overnight incubation by broth microdilution method; format: functional
[12] = tested on: Escherichia coli; experiment: Antibacterial activity against Escherichia coli MTCC 442 after overnight incubation by broth microdilution method; format: functional
[13] = tested on: Streptococcus pyogenes; experiment: Antibacterial activity against Streptococcus pyogenes MTCC 443 after overnight incubation by broth microdilution method; format: functional
[14] = tested on: Staphylococcus aureus; experiment: Antibacterial activity against Staphylococcus aureus MTCC 96 after overnight incubation by broth microdilution method; format: functional

Row | SMILES | MIC99 [1] [µg/mL] | Ratio CC50/IC50 [2] | Ratio CC50/IC50 [3] | CC50 at 120 h [4] [µg/mL] | IC50 [5] [µg/mL] | IC50 [6] [µg/mL] | growth inhibition (GI) [7] [%] | MIC [8] [µg/mL] | MIC99 [9] [µg/mL] | MIC99 [10] [µg/mL] | MIC99 [11] [µg/mL] | MIC99 [12] [µg/mL] | MIC99 [13] [µg/mL] | MIC99 [14] [µg/mL]
1 | Clc1ccc(-c2nnc(-c3cccnc3)o2)cc1 | 500 (≈ 1940 µM) | <1 | <1 | 4.49 (≈ 17.4 µM) | > 4.49 | > 4.49 | 98 | 500 (≈ 1940 µM) | 1000 (≈ 3880 µM) | 1000 (≈ 3880 µM) | 500 (≈ 1940 µM) | 500 (≈ 1940 µM) | 250 (≈ 970 µM) | 200 (≈ 776 µM)
2 | Fc1ccc2nc(Nn3c(-c4ccc(Cl)cc4)nnc3-c3cccnc3)sc2c1 | 62.5 (≈ 148 µM) | <1 | <1 | 92.9 (≈ 220 µM) | > 92.9 | > 92.9 | 98 | 62.5 (≈ 148 µM) | 500 (≈ 1180 µM) | 500 (≈ 1180 µM) | 200 (≈ 473 µM) | 500 (≈ 1180 µM) | 500 (≈ 1180 µM) | 250 (≈ 591 µM)
3 | Clc1ccc(-c2nnc(-c3cccnc3)n2Nc2nc3ccc(Br)cc3s2)cc1 | 500 (≈ 1030 µM) | <1 | <1 | 29.6 (≈ 61.2 µM) | > 29.6 | > 29.6 | 96 | 500 (≈ 1030 µM) | 1000 (≈ 2070 µM) | 500 (≈ 1030 µM) | 100 (≈ 207 µM) | 500 (≈ 1030 µM) | 1000 (≈ 2070 µM) | 500 (≈ 1030 µM)
4 | O=[N+]([O-])c1ccc2nc(Nn3c(-c4ccc(Cl)cc4)nnc3-c3cccnc3)sc2c1 | 125 (≈ 278 µM) | <1 | <1 | 62.1 (≈ 138 µM) | > 62.1 | > 62.1 | 98 | 500 (≈ 1110 µM) | > 1000 | 500 (≈ 1110 µM) | 500 (≈ 1110 µM) | 250 (≈ 556 µM) | 100 (≈ 222 µM) | 125 (≈ 278 µM)
5 | Cc1ccc2nc(Nn3c(-c4ccc(Cl)cc4)nnc3-c3cccnc3)sc2c1 | 500 (≈ 1190 µM) | <1 | <1 | 75.5 (≈ 180 µM) | > 75.5 | > 75.5 | 95 | 50 (≈ 119 µM) | 1000 (≈ 2390 µM) | 1000 (≈ 2390 µM) | 1000 (≈ 2390 µM) | 500 (≈ 1190 µM) | 500 (≈ 1190 µM) | 500 (≈ 1190 µM)
6 | COc1ccc2nc(Nn3c(-c4ccc(Cl)cc4)nnc3-c3cccnc3)sc2c1 | 250 (≈ 575 µM) | <1 | <1 | 66.8 (≈ 154 µM) | > 66.8 | > 66.8 | 98 | 500 (≈ 1150 µM) | 500 (≈ 1150 µM) | 500 (≈ 1150 µM) | 250 (≈ 575 µM) | 500 (≈ 1150 µM) | 500 (≈ 1150 µM) | 500 (≈ 1150 µM)
